Values after ≈ are worked out from the molar mass of the structure shown.
Tests used:
S. aureus Mu50 [1] = experiment: Minimal division inhibitory concentration, S. aureus Mu50; format: cell-based; details: Staphylococcus aureus, MU50, read-out: MDC S. aureus Mu50
Experimental: (§1) B. subtilis 168 and Staphylococcus spp. were grown in cation adjusted Mueller–Hinton broth (CAMHB; Becton, Dickinson and Company) at 37 °C. B. subtilis SU570 were grown in the same medium at 30 °C. In all cases, the cells were grown to an absorbance of 0.1–0.2 at 600 nm and then incubated either with the compounds or DMSO vehicle. Microscopy assays and cell measurement were performed as previously described.[31] MIC values were determined by a broth macrodilution method.[51] MBC values were determined as the lowest concentration of inhibitor at which there was a 99.9% reduction in colony-forming units/mL compared to the inoculum. To construct a S. aureus strain expressing FtsZ-mCherry, the plasmid pCN-ftsZmch[9] was electroporated into RN4220 and 0.1 μM cadmium chloride (Sigma-Aldrich) was used to induce the expression of the construct under the control of the Pcad promoter.

B. subtilis [2] = experiment: Minimal division inhibitory concentration and cell division phenotype, B. subtilis; format: cell-based, Bacillus subtilis; details: Bacillus subtilis, read-out: MDC B. subtilis
Method in brief: (§2)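 Strains grown in cation-adjusted Mueller–Hinton broth at 37 °C (B. subtilis SU570 at 30 °C) to A600 0.1–0.2, then exposed to compounds or DMSO. MIC by broth macrodilution; division phenotype assessed by microscopy and cell measurement.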

S. aureus Mu50 [3] = experiment: Minimal growth inhibitory concentration (broth macrodilution), S. aureus Mu50; format: cell-based, Staphylococcus aureus; details: Staphylococcus aureus, MU50, read-out: MIC S. aureus Mu50
Method in brief: as §2

[4] = tested on: Staphylococcus haemolyticus; experiment: Minimal growth inhibitory concentration, S. haemolyticus; format: cell-based
Experimental: as §1

B. subtilis [5] = experiment: Minimal growth inhibitory concentration (broth macrodilution), B. subtilis; format: cell-based, Bacillus subtilis; details: Bacillus subtilis, read-out: MIC B. subtilis
Method in brief: as §2

[6] = biological target: T1, stabilized polymers of FtsZ from B. subtilis (Bacillus subtilis, UniProt P17865); experiment: Competition assay: displacement of probe (R)-5 from stabilized BsFtsZ-GMPCPP polymers; format: binding; details: stabilized polymers of FtsZ from B. subtilis; probe (R)-5; mean ± SEM; read-out: KD
T1 construct: made in house

[7] = tested on: S. aureus subsp. aureus (ATCC 25923); experiment: Minimal growth inhibitory concentration, S. aureus subsp. aureus; format: cell-based; details: Staphylococcus aureus, ATCC25923
Experimental: as §1

[8] = tested on: Staphylococcus epidermidis; experiment: Minimal growth inhibitory concentration, S. epidermidis; format: cell-based
Experimental: as §1

[9] = Solubility in HEPES buffer with 2% DMSO, spectrophotometric; format: physicochemical; details: HEPES buffer containing 2% DMSO, 25 °C, aqueous buffer, kinetic from dmso stock; HEPES buffer pH 6.8 containing 2% DMSO
B. subtilis 168 = experiment: Cell length of B. subtilis 168 incubated with FtsZ inhibitors; format: cell-based, Bacillus subtilis; design: unit of the concentration uncertain; unit not given here; details: B. subtilis 168, 3 h, 1 (unit uncertain) as printed
Experimental: Figure 4 Fluorescence anisotropy screen for FtsZ allosteric inhibitors combined with cell-based methods. (A) Screen for FtsZ inhibitors employing the fluorescence anisotropy of probe (S)-2 (3 μM) and stabilized FtsZ-GMPCPP polymers (8 μM binding sites). […] Control values with the corresponding concentrations of dimethyl sulfoxide (DMSO) vehicle (2% void and gray circles; 4%, black circle) are also shown. […] Raw data plots (n ≥ 30) are shown with the mean values marked (statistics in Table S2). The cells were incubated for 3 h with each compound, and cell lengths were measured. (D) Representative phase-contrast images of cells after 3 h with 7 or 9 (0.75 mM each). (E) Cellular localization of FtsZ-GFP in B. subtilis SU570 following growth for 1.5 h in the absence (inset) and presence of 7 (0.2 mM). Bars, 10 μm.
as §1, with “MBC values were determined as the lowest concentration of inhibitor at which there was a 99.9% reduction in colony-forming units/mL compared to the inoculum.” left out, “promoter. […]” for “promoter.”

S. aureus = experiment: Minimal bactericidal concentration; format: cell-based; details: Staphylococcus aureus; 99.9% reduction in colony-forming units/mL
Experimental: as §1

[10] = biological target: T2, stabilized SaFtsZ polymers (Staphylococcus aureus, UniProt P0A031); experiment: Competition assay with stabilized SaFtsZ polymers; format: binding; details: read-out: KD (in parenthesis) (converted)
T2 construct: Full-length S. aureus FtsZ (SaFtsZ); made in house
Experimental: Full-length S. aureus FtsZ (SaFtsZ) and the truncated protein SaFtsZ(12–315) were purified as described.[34] SaFtsZ was assembled in 50 mM MES, 50 mM KCl, 1 mM EDTA, pH 6.5 plus 10 mM MgCl2, and 0.1 mM GMPCPP.
(§3) FtsZ (10–15 μM) was assembled in HEPES buffer, 10 mM MgCl2, 50 μM GMPCPP at 25 °C for 10 min, and then 0.15% (v/v) glutaraldehyde[36] (distilled grade for microscopy, TAAB Laboratories, U.K.) was added to the solution that was incubated at 25 °C for 10 min more. (This was the minimal glutaraldehyde concentration determined to stabilize FtsZ polymers specifically binding probe 1.) The remains of the cross-linking agent were quenched by adding 60 mM NaBH4, the sample was incubated on ice for 10 min and degassed.[36] Cross-linked polymers were centrifuged for 10 min at 8200g (5000 rpm) and 4 °C in 15 mL Falcon tubes employing a Rotina 380R (Hettich) centrifuge, the supernatant was removed and the pellet was resuspended in the same volume of HEPES buffer, 10 mM MgCl2, containing 5 μM GMPCPP. Fixed FtsZ polymers were active in binding assays after more than 2 days at 4 °C; they could also be frozen in liquid nitrogen with a small loss of binding capacity. […] Cross-linked polymers of SaFtsZ were similarly prepared.
Competition assays were performed by measuring, through the decrease in fluorescence anisotropy, the displacement of the fluorescent probes from stabilized FtsZ polymers. Increasing concentrations of competing ligands were added to the mixtures of cross-linked FtsZ polymers (10–15 μM) with probe 1 (3 μM), 7–8 μM FtsZ polymers with probe (S)-2 (3 μM), or 2–3 μM FtsZ polymers with (R)-5 (3 μM). HEPES buffer with 10 mM MgCl2 and 0.1 mM GMPCPP was employed, with a final volume of 0.5 mL, and the anisotropy measured at 25 °C. Under these conditions, the initial fraction of the probe bound was between 0.4 and 0.5. The fraction of the probe bound (Vb) was calculated [drawing 1] where rfree and rmax are the anisotropy values of the free and bound probes, respectively, and R is the ratio between the fluorescence intensities of the bound and free probe (Table S1). The binding data were plotted against the competing ligand concentration and fitted by competition equilibrium of the ligand and the probe for the same binding site. The resulting system of equations[50] was numerically solved using the Equigra v. 5.0 program,[33] which provided the best-fitted value of the competitor binding constant.

MTT cytotoxicity assay = format: cell-based; details: human, IMR90 lung fibroblast cells, relative to vehicle
Experimental: The sensitivity of the IMR90 cell line to compounds was tested through a standard 3-(4,5-dimethylthiazol-2-yl)-2,5-diphenyltetrazolium bromide (MTT) assay.[52] The results were reported as the viability percentage of the tested compound relative to vehicle (DMSO), obtained from two or three independent experiments performed in triplicate.

[11] = biological target: T3, FtsZ-GMPCPP polymers (BsFtsZ) (Bacillus subtilis, UniProt P17865); experiment: Binding titration of the fluorescent probes to FtsZ polymers by fluorescence anisotropy
T3 construct: made in house
Experimental: (§4) FtsZ from B. subtilis (BsFtsZ) was prepared as described previously.[35] FtsZ was assembled in 50 mM N-(2-hydroxyethyl)piperazine-N′-ethanesulfonic acid (HEPES)-KOH, 50 mM KCl, 1 mM ethylenediaminetetraacetic acid (EDTA), pH 6.8 (HEPES buffer) plus 10 mM MgCl2, and 1 mM GTP or 0.1 mM GMPCPP at 25 °C. FtsZ assembly was monitored by light scattering.[34]
The fluorescence spectra and anisotropy values of the different probes were acquired with a Fluoromax-4 (Horiba Jobin Yvon) photon-counting L-format spectrofluorometer using 2 mm × 10 mm cells at 25 °C, employing the maximum excitation and emission wavelength for each probe with 2 and 5 nm bandwidths, respectively. Anisotropy values were automatically measured as r = (Ivv – G Ivh)/(Ivv + 2G Ivh), where the subscripts refer to the vertical (v) or horizontal (h) positions of the excitation (first subscript) and emission (second subscript) polarizers, and G = Ihv/Ihh. Total intensity values were simultaneously determined as IT = Ivv +2G Ivh. Note that measurement correction procedures with T-format (double channel) fluorometers and with plate readers are slightly different.
as §3
Binding affinity of the probes to FtsZ was measured by an increase in anisotropy of the probe (adapted from ref ([49])). Fixed concentrations of the probes (3 μM) were titrated with different FtsZ polymer concentrations (0–40 μM) in HEPES buffer with Mg^2+, to obtain the anisotropy increment, Δrmax, corresponding to the bound probe. The increase in anisotropy was plotted against the FtsZ polymer concentration (calculated by subtracting from the total protein concentration the critical concentration for polymerization under the same conditions) and iteratively least-squares fitted with an isotherm of binding to one site. The estimated values of Δrmax were used to approximate the free FtsZ concentrations, and these new values were employed again until an unchanging Δrmax value was obtained. The convergent data were used to calculate the binding constant of the fluorescent probe to FtsZ polymers (Table S1).

B. subtilis [12] = tested on: B. subtilis; design: method as in earlier work; details: Table S1; ref 1 (Artola et al., Chem. Sci. 2017); cited from earlier work
BsFtsZ = biological target: T4, BsFtsZ (Bacillus subtilis, UniProt P17865); experiment: Fluorescence anisotropy of probes after consecutive additions of FtsZ, GMPCPP, MgCl2 and PC190723; format: binding
T4 construct: made in house
Experimental: (A) Fluorescence anisotropy values of the free probes (10 μM) in buffer, to which FtsZ (10 μM, unassembled) was added, followed by the slowly hydrolyzable GTP analogue GMPCPP (0.1 mM). BsFtsZ polymerization was then induced by the addition of MgCl2 (10 mM) and anisotropy values were recorded 5–10 min later. Nonfluorescent PC190723 (10 μM) was subsequently added to displace the fluorescent probe and anisotropy was measured 5 min later. (B) Fluorescence microscopy images of B. subtilis cells treated for 1.5 h with the minimal division inhibitory concentrations (MDC) of (S)-2 and each enantiomer of 5 (Table S1), acquired employing the probe fluorescence.
as §4

[13] = FtsZ-GMPCPP polymers, best fit values from binding titrations
[14] = binding to stabilized FtsZ polymers

T4 sequence (P17865 whole entry): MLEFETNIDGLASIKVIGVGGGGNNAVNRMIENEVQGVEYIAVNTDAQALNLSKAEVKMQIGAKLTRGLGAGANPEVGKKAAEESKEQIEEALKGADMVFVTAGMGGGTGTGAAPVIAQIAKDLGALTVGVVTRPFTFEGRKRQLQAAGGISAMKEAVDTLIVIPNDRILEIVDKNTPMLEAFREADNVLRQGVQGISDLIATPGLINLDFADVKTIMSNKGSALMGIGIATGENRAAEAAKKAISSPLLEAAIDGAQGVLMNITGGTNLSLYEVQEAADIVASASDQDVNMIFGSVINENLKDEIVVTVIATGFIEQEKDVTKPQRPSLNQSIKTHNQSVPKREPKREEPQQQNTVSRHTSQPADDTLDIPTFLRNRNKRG
T3 sequence (P17865 whole entry): as above
T1 sequence (P17865 whole entry): as above
T2 sequence (P0A031 whole entry): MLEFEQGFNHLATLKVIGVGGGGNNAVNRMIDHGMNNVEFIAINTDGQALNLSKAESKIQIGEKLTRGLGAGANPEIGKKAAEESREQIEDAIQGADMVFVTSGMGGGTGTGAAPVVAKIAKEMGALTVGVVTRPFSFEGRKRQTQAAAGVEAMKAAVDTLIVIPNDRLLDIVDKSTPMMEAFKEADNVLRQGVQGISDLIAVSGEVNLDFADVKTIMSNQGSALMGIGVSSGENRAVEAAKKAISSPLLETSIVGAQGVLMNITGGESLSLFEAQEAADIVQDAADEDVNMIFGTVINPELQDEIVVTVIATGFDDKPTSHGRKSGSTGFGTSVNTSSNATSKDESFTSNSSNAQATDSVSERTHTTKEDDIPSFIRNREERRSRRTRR

SMILES | minimal effective concentration (S. aureus Mu50 [1]) | minimal effective concentration (B. subtilis [2]) | MIC (S. aureus Mu50 [3]) | MIC [4] | MIC (B. subtilis [5]) | Kd [6] | MIC [7] | MIC [8] | solubility [9] | MBC (S. aureus) | Kd [10] | also measured
CCCC(COc1ccc(F)c(C(N)=O)c1F)Nc1cccc(C(F)(F)F)c1 (racemic) [rac-26, 2,6-Difluoro-3-[(2-{[3-(trifluoromethyl)phenyl]amino}pentyl)oxy]benzamide] | 25 µM | 2.5 µM | 50 µM (≈ 20.1 µg/mL) | 50 µM (≈ 20.1 µg/mL) | 5 µM (≈ 2.01 µg/mL) | 1.1 ± 0.1 µM | 100 µM (≈ 40.2 µg/mL) | 50 µM (≈ 20.1 µg/mL) | 50 µM (≈ 20.1 µg/mL) |  |  | 
CCC[C@H](COc1ccc(F)c(C(N)=O)c1F)Nc1cccc(C(F)(F)F)c1 [(R)-26] | 10 µM | 1 µM | 25 µM (≈ 10.1 µg/mL) | 25 µM (≈ 10.1 µg/mL) | 2.5 µM (≈ 1.01 µg/mL) | 0.2 ± 0.1 µM | 25 µM (≈ 10.1 µg/mL) | 25 µM (≈ 10.1 µg/mL) | 100 µM (≈ 40.2 µg/mL) | 25 µM (≈ 10.1 µg/mL) | < 0.1 µM | length (B. subtilis 168): 17.6 ±0.8; viability at 25 µM (MTT cytotoxicity assay; IMR90, 25 µM): 100 ± 1%
NC(=O)c1c(F)ccc(OCCNc2ccc([N+](=O)[O-])c3nonc23)c1F [Compound 1, reference compound] |  |  |  |  |  |  |  |  |  |  |  | Imax/Imin [11, 13]: 1.0; rmax (all probe bound) [11, 13]: 0.213; rmin (free probe) [11, 13]: 0.024; Kd [11, 13]: 26 ± 3 µM; Kd [11, 14]: 17 ± 1 µM; Imax/Imin [11, 14]: 1.0; rmax (all probe bound) [11, 14]: 0.26; rmin (free probe) [11, 14]: 0.024; MIC B. subtilis (B. subtilis [12]): 800 µM (≈ 303 µg/mL); Fluorescence anisotropy (r): + PC190723 (BsFtsZ; PC190723 10 μM added to the polymer, 5 min): 0.029; Fluorescence anisotropy (r): free probe (BsFtsZ; probe 10 μM in buffer): 0.022; Fluorescence anisotropy (r): + FtsZ (unassbld.) (BsFtsZ; probe 10 μM, FtsZ 10 μM): 0.027; Fluorescence anisotropy (r): + GMPCPP (BsFtsZ; probe 10 μM, FtsZ 10 μM, GMPCPP 0.1 mM): 0.026; Fluorescence anisotropy (r): + MgCl2 (polymer) (BsFtsZ; probe 10 μM, FtsZ 10 μM, GMPCPP 0.1 mM, MgCl2 10 mM, 5–10 min): 0.080
NC(=O)c1c(F)ccc(OCc2cccc(C(F)(F)F)c2)c1F [Compound 20, 2,6-Difluoro-3-{[3-(trifluoromethyl)benzyl]oxy}benzamide] | 50 µM | 10 µM | 50 µM (≈ 16.6 µg/mL) | 25 µM (≈ 8.28 µg/mL) | 25 µM (≈ 8.28 µg/mL) | 0.7 ± 0.2 µM | 25 µM (≈ 8.28 µg/mL) | 25 µM (≈ 8.28 µg/mL) | 50 µM (≈ 16.6 µg/mL) | 100 µM (≈ 33.1 µg/mL) | 0.7 ± 0.2 µM | viability at 50 µM (MTT cytotoxicity assay; IMR90, 50 µM): 84 ± 5%

Source: PMC8478281, “Targeting the FtsZ Allosteric Binding Site with a Novel Fluorescence Polarization Screen, Cytological and Structural Approaches for Antibacterial Discovery” (Journal of Medicinal Chemistry, 2021)
